What was measured:
A549/DDP = test: MTT cell viability assay, A549/DDP; type: cell-based, human; details: A549/DDP (DDP-resistant), 48 h
Description: Cells were seeded at a density of 1 × 10^4 cells per well in 96-well plates. The following day, these cells were washed with PBS and exposed to different concentrations of testing compounds in culture medium for 48 h. MTT solution (10 μl at 5 mg/ml) was added to each well. After 4 h of incubation at 37°C, the medium was removed, and the insoluble precipitate was dissolved in 100 μl DMSO (Sigma, St. Louis, MO, USA). The absorbance of the dissolved solution at 490 nm was measured using a microplate reader (TECAN A-5082; Megllan, Austria). Cell viability percentages were calculated by dividing the mean optical density (OD) of compound-containing wells by that of the control wells. Each experiment was replicated three times. The IC50 of testing drugs was calculated with Statistical Product and Service Solutions software (SPSS, version 16.0).

A549 xenograft tumors = test: A549 xenograft tumor growth in nude mice; type: in vivo; details: 30, 60, 120 mg/kg, tail vein every 3 days
Description: (§1) Cells in logarithmic growth were washed with PBS and suspended in serum-free medium. Portions of the suspension (5 × 10^6 cells in 0.1 ml/mouse) were mixed at a 3:1 ratio with Matrigel basement membrane matrix and injected subcutaneously into the mice. Following 2 weeks of growth, tumor tissues were cut into multiple 2 × 2 × 2 mm^3 pieces and implanted using a range trocar subcutaneously (s.c. injection) into the left forepaw armpit of each mouse ([Jiang et al., 2017]). Treatment with pharmacology was started when the tumors reached an average volume of 100–200 mm^3. The mice were randomly divided into six groups (n = 14/group).
(§2) Body weight and tumor size were assessed every 3 days. Tumor size was measured using a caliper, the volumes were calculated according to the following standard formula: V = (L × W^2)/2 (V = tumor volume, L = largest diameter of tumor, W = smallest diameter of tumor). On day 25, all mice were sacrificed by cervical dislocation, and the tumors were removed and weighed.

H292 xenograft tumor = H292 xenograft tumor growth in nude mice; type: in vivo; details: 120 mg/kg, tail vein every 3 days
Description: as §1, §2

ICR mice = test: General neurotoxicity observation in ICR mice; type: in vivo; details: i.v.
Excerpt: The animals were observed daily for any evident symptoms of sickness. Changes in their appearance (e.g., kyphosis and altered grooming), behavior (altered nesting) and activity (altered exploring) were monitored for general neurotoxicity assessment.

A549 and H292 cells = test: EdU incorporation assay; type: cell-based, human; details: 48 h; diplatin 50 μM, DDP 5 μM, CBP 100 μM
Description: Cell proliferation was analyzed by measurement of DNA synthesis as identified by the EdU cell proliferation assay, which was applied in accordance with product manufacturer instructions. Cells (5 × 10^4 cells per well) were cultured in triplicate in 24-well plates and treated with testing compounds for 48 h. Then the cells were incubated with 50 μM EdU for an additional 2 h at 37°C. Cells were fixed with 4% formaldehyde for 30 min and were permeabilized with 0.5% Triton X-100 for 10 min at room temperature. After washing with PBS three times, cells were incubated for 30 min with 1× Apollo reaction cocktail. Finally, cells were stained with 10 μg/ml of Hoechst 33342 for 30 min and then imaged using a confocal laser scanning microscope (FV1000; Olympus, Japan). The percentage of EdU^+ cells was quantified using ImageJ software by dividing the mean OD of EdU^+ cells to the mean OD of Hoechst-labeled cells.

A549 cells = test: Cell cycle by PI flow cytometry, A549; type: cell-based, human; details: diplatin 50 μM, DDP 5 μM, CBP 100 μM
Description: Then, the cells were trypsinized, washed with PBS, and fixed in 1.5 ml 95% ethanol and left at 4°C overnight. They were then incubated with RNase and stained with propidium iodide (PI) (Multi Sciences Biotech Co., Ltd). PI absorbance was determined using a Cytomics FC500 Flow Cytometer (Beckman Coulter, USA).

[1] = system: JNK, Erk1/2 and p38 phosphorylation in A549 and H292 cells; test: Western blot of MAPK phosphorylation (JNK, Erk1/2, p38); type: cell-based, human
Description: Cells were treated with diplatin, DDP, and CBP before being lysed. After centrifugation at 12,000 rpm for 10 min, an equal amount of protein from each group was subjected to electrophoresis on 10% SDS-PAGE gels. The proteins in the gel were then electroblotted onto polyvinylidene fluoride (PVDF) membranes (Millipore, Massachusetts, USA). After incubation in the blocking buffer (1× TBS, 0.1% Tween-20, and 5% w/v dry nonfat milk) for 1 h at room temperature, the membranes were incubated with the primary antibody at 4°C overnight. Next, membranes were rinsed with TBST, and then secondary antibodies were applied (LI-COR, USA) at room temperature for 1 h. Immunoreactive bands were visualized by a two-color infrared imaging system (Odyssey, LI-COR, USA).

## CCN(CC)CCCCC1C(=O)[O][Pt][O]C1=O.N[C@@H]1CCCC[C@H]1N.O=P(O)(O)O [Diplatin]
A549/DDP
  IC50: 133 µM
A549 xenograft tumors
  effect on growth of A549 xenograft tumors: dose-dependently inhibited the growth
H292 xenograft tumor
  inhibition of H292 xenograft tumor growth: 65.0%
ICR mice; 240 mg/kg twice a week for 4 weeks
  animals showing signs of mild kyphosis and piloerection: approximately 20%
ICR mice; 60, 120, or 240 mg/kg twice a week for 4 weeks
  changes in behavior (altered nesting) and activity (altered exploring): no notable changes
A549 and H292 cells
  EdU incorporation: dramatically decreased
A549 cells
  effect on cell cycle distribution: significant accumulation of cells in G2/M phase
[1]; 0.5 h exposure
  concentration of apparent maximum JNK phosphorylation: 25 µM
[1]; diplatin 10, 25, 50 μM, DDP 5 μM, CBP 100 μM
  Erk1/2 and p38 phosphorylation: failed to induce Erk1/2 and p38 phosphorylation
[1]; diplatin 10–50 μM, DDP 10 μM, 0.5 h
  JNK phosphorylation levels: elevated
